# Measured values: patent publication US20260198495A1, “BINARY INSECTICIDE COMPOSITION AND USE THEREOF” (SHENYANG SINOCHEM AGROCHEMICALS R & D CO., LTD., priority 2022, published 2026)
# What was measured:
# Type in all cases: in vivo
# [1] = test system: 3rd-instar larvae of Pyrausta nubilalis Hubern; test: Synergism assay (Bliss) of I-72 + abamectin, spinosad, spinetoram, emamectin benzoate, Example 6, Table 6; conditions: Ostrinia nubilalis, 72 h, read-out: Mortality rate (%)
# Experimental: Test subject: 3rd-instar larvae of Pyrausta nubilalis Hubern, a sensitive strain reared indoors.
# Test conditions: temperature: 24-26° C., humidity: RH 60%, and illumination: L:D=14:10
# Preparation method: the test pesticides were accurately weighed respectively with an electronic analytical balance. After the two technical materials were respectively added into an appropriate amount of solvent and completely dissolved, the stock solution of the required concentration was prepared with water containing 0.1% Tween 80. The stock solutions of the two active ingredients were mixed in a certain ratio to prepare a mixed solution, which was then diluted respectively into a series of pesticide solutions with a certain concentration gradient according to the experimental design dosage.
# Experimental method: the artificial diet-pesticide film method was adopted. A standard clean 24-well culture plate was selected. 1 ml of artificial diet was added to each well. After the diet cooled and solidified, a quantitative amount of a pesticide solution was added to the culture plate using a continuous sampler, and then it was air-dried naturally in the shade. The standard test insects were introduced, with 1 insect in each well, a total of 48 insects. The treated test insects were placed in an observation room under certain conditions. The reaction of the test insects was regularly observed, and the number of dead and live insects was investigated 72 h later.
# The evaluation method adopted was the Bliss method. This method is applicable to the qualitative screening of insecticidal compositions. According to the concept of independent joint action he proposed, Bliss believes that the theoretical mortality rate P when insecticides are used in combination can be calculated by the following formula: […]
# Pm is the mortality rate (%) of the target when the first active ingredient is at a concentration of m; and Pn is the mortality rate (%) of the target when the second active ingredient is at a concentration of n.
# If the actual mortality rate of the target after the two active ingredients are mixed at a certain concentration is greater than theoretical mortality rate P, it is determined that the two active ingredients have a synergistic effect when used in combination at the set concentration, and otherwise, they have an antagonistic effect.
# adult Phyllotreta spp. = test: Joint toxicity of I-72 + organophosphorus insecticides, cabbage seedling spraying, Example 19, Table 19; conditions: adults, cabbage seedling spraying, 72 h; A = compound I-72, B = acephate; read-out: LC50
# Experimental: Test target: adult Phyllotreta spp., a sensitive strain reared indoors.
# (§1) Preparation of the pesticide solution: according to different test requirements, the test samples were accurately weighed respectively with an electronic analytical balance. The technical pesticides were dissolved in acetone, and then diluted with 0.1% Tween 80 water into a series of pesticide solutions with a certain concentration gradient according to the experimental design dosage.
# Experimental method: first, fresh cabbage seedlings cultivated in the greenhouse were selected and evenly sprayed with the pesticide solution in the order from low dosage to high dosage according to the experimental design. After natural air-drying in the shade, they were covered with a glass cover, and uniform and healthy test insects were introduced, with 10 insects for each treatment and 3 replicates for each treatment. In addition, a blank control was set up.
# The treated test materials were placed in an observation room, and the temperature, humidity and illumination of the observation room could be adjusted as needed. The number of dead and live insects was investigated 72 hours later. The corrected mortality rate was calculated using the Abbott's formula, and statistical analysis was performed with the DPS data processing software to obtain the toxicity regression equation, LC50 value and 95% confidence limit of each single test pesticide and each mixture of different ratios. Then, the co-toxicity coefficient of each ratio was calculated using the Sun Y-P method to evaluate the mixing effect (the same as in Example 1).
# [2] = test system: Bemisia tabaci (Gennadius) nymphs; test: Joint toxicity of I-72 + thiacloprid, Example 71, Table 71; conditions: A = compound I-72, B = thiacloprid, cotton leaf-disk spraying, 96 hours, read-out: LC50
# Experimental: Test target: Bemisia tabaci (Gennadius) nymphs, a sensitive strain reared indoors.
# as §1
# Experimental method: first, cotton leaves with neat and consistent Bemisia tabaci (Gennadius) nymphs were selected and made into leaf disks, with about 20 insects on each leaf disk. Then, they were evenly sprayed with the pesticide solution in the order from low dosage to high dosage according to the experimental design, with 1.5 mL for each leaf and 3 replicates for each treatment. In addition, a blank control was set up.
# The treated test materials were placed in an observation room, and the temperature, humidity and illumination of the observation room could be adjusted as needed. The number of dead and live insects was investigated 96 hours later. […] Then, the co-toxicity coefficient of each ratio was calculated using the Sun Y-P method to evaluate the mixing effect (the same as in Example 1).
# Rhizoctonia solani = test: Control efficacy against Rhizoctonia solani, rice seedling potting method, Example 89, Table 89; conditions: rice seedlings, foliar spraying
# Experimental: Control efficacy of the composition containing the compound I-72 against Rhizoctonia solani
# Test target: Rhizoctonia solani, a sensitive strain cultured indoors.
# The trial adopted the seedling potting method. Test crop: rice. Experimental method: the rice seedlings were cultured to the 2-leaf stage in the greenhouse of the experimental materials. Foliar spraying treatment was performed on the crop sprayer according to the designed dosage. The test target strain was inoculated 24 hours after the pesticide treatment. All the inoculated experimental materials were cultured in a phytotron. […] The disease grading and the calculation method of the control efficacy both referred to the agricultural industry standards of the People's Republic of China.
# Pyrrhalta aenescens = test: Joint toxicity of I-72 + fenobucarb, insect-dipping, Example 24, Table 24; conditions: A = compound I-72, B = fenobucarb, insect-dipping, 24 hours, read-out: LC50
# Experimental: Test target: Pyrrhalta aenescens, a strain reared indoors.
# Experimental method: the insect-dipping method was adopted. Pyrrhalta aenescens of the same size were selected, put into an insect-dipping cage, and evenly […] the pesticide solution in the order from low dosage to high dosage according to the experimental design, with dipping for 10 s for each treatment. They were placed in a 9-cm-diameter Petri dish with filter paper. After natural air-drying in the shade, feed was added, with 3 replicates for each treatment. In addition, a blank control was set up.
# The treated test materials were placed in an observation room. The total number of test insects and the number of dead insects were investigated 24 hours later. The temperature, humidity and illumination of the observation room could be adjusted as needed. The test conditions, the preparation of the pesticide solution and the evaluation method were the same as those in Example 1.
# [3] = test system: adult Bemisia tabaci (Gennadius); test: Joint toxicity of I-72 + pyraclostrobin, cotton seedling spraying, Example 83, Table 83; conditions: A = compound I-72, B = pyraclostrobin, cotton seedling spraying, 72 hours, read-out: LC50
# Experimental: as §1
# The corrected mortality rate was calculated using the Abbott's formula, and statistical analysis was performed with the DPS data processing software to obtain the toxicity regression equation and LC50 value of each single test pesticide and each mixture of different ratios.
structure (smiles),measurement,setting,value
CN(C(=O)c1ccc2c(c1)OC(F)(F)O2)c1cccc(C(=O)Nc2c(Br)cc(C(F)(C(F)(F)F)C(F)(F)F)cc2OC(F)F)c1F [Compound I-72],mortality at 0.05 µg/mL,[1]; single agent 0.05 mg/L,10.4%
same,mortality at 0.1 µg/mL,[1]; single agent 0.1 mg/L,25%
same,mortality at 1 µg/mL,[1]; single agent 1 mg/L,62.5%
same,mortality at 2 µg/mL,[1]; single agent 2 mg/L,72.9%
same,mortality at 5 µg/mL,[1]; single agent 5 mg/L,81.2%
same,LC50,adult Phyllotreta spp.,3.01 mg/L
same,LC50,[2],10.9 mg/L
same,Control efficacy,"Rhizoctonia solani; 5 mg/L, A = compound I-72, B = coumoxystrobin",0%
same,Control efficacy,"Rhizoctonia solani; 5 mg/L, A = compound I-72, B = pyraoxystrobin",0%
same,Control efficacy,"Rhizoctonia solani; 10 mg/L, A = compound I-72, B = coumoxystrobin",0%
same,Control efficacy,"Rhizoctonia solani; 10 mg/L, A = compound I-72, B = pyraoxystrobin",0%
same,Control efficacy,"Rhizoctonia solani; 20 mg/L, A = compound I-72, B = coumoxystrobin",0%
same,Control efficacy,"Rhizoctonia solani; 20 mg/L, A = compound I-72, B = pyraoxystrobin",0%
same,LC50,Pyrrhalta aenescens,1.33 mg/L
same,LC50,[3],4.02 mg/L
